Source: patent publication US20210147932A1, “FLUORESCENT PROBES FOR QUANTIFICATION OF DNA DAMAGE AND REPAIR” (The Board of Trustees of the Leland Stanford Junior …, priority 2019, published 2021)
Where “and” joins values, the source holds several entries; their conditions need not be identical. Equal values may be shown once. Entries after “also recorded” stand apart in the source; their conditions may differ.

How the values were obtained:
[1] = tested on: DNA hairpin containing a tetrahydrofuran spacer (pseudo AP site); test: Fluorescence of probe with pseudo AP site DNA hairpin (non-covalent); format: binding
Protocol: FIG. 9 provides interaction between Compound (1) (CCVJ1) and DNA. […] (Ex. 485, Em. 538).
To further explore the hypothesis that the oxime rate acceleration in these AP-site DNAs was related to base stacking interactions, the fluorescence was measured of CCVJ1 in the presence and absence of a non-lesion containing DNA hairpin.

[2] = tested on: AP-DNA; test: Oxime formation kinetics of probe with AP-DNA; format: biochemical; conditions: Tris buffer, probe concentration 10-100 μM
[3] = tested on: AP-containing single-stranded DNA oligonucleotide (oligonucleotide 18); test: Reaction of probe with AP-containing single-stranded DNA; format: biochemical
Protocol: FIG. 8 provides representative plot for the reaction of Compound (1) (CCVJ1) with single stranded DNA oligonucleotide 18.
Additional experiments were performed to study the origins of this unusually rapid reaction. […] To test the effect that proximity between the alkoxyamine and planar portion of the probe had on oxime kinetics in our probes, probes were synthesized having variable-length linkers (CCVJ2 and CCVJ3) from aldehyde reactive linkers L2 and L3 respectively (FIG. 2A). […] To test the importance of a double-stranded DNA structure to the rate and fluorescence response, an AP-containing single-stranded DNA oligonucleotide was reacted with CCVJ1. At pH 7, CCVJ1 reacted with a second-order rate constant of 33 M^−1s^−1 with the single-stranded substrate, roughly 5-fold slower than a double-stranded hairpin with identical sequence context (FIG. 8).

[4] = Off-target light-up with small-molecule carbonyl species; conditions: 5 μM CCVJ1, 500 μM carbonyl species, 37° C.
Protocol: FIG. 13 provides fluorescence response of 5 μM Compound (1) (CCVJ1) with 500 μM of various biologically relevant carbonyl species after 1 h incubation in buffer at 37° C. […] (Ex. 485, Em. 538)
Since the probe design involves conformational restriction to induce a light-up signal, it was hypothesized that off-target oxime formation with small molecules might induce a relatively small signal relative to DNA, thus providing a measure of selectivity in signaling. […] Another potential aspect is that ketones or aldehydes in the environment might compete with the DNA AP site to react with the aminooxy group, thereby consuming the free probe and reducing the maximum signal. Initial testing of the reactivity of CCVJ1 with AP site-containing DNA in the presence of increasing amounts of competing 2-deoxyribose, the closest small-molecule analogue to the DNA AP site. […] This was repeated this experiment with pyruvic acid, a highly reactive ketone and a common cellular metabolite.

[5] = tested on: AP-DNA; test: Oxime formation kinetics of probe with AP-DNA; format: biochemical
Protocol: FIG. 3 provides representative plots for calculations of k2 for Compound (1) (CCVJ1) under various buffer conditions with oligo 15. Plots were fitted in OriginPro 8.5 according to the equation derived by Larsen et. al.^5 for second-order rate constants of oxime formation. Apparent second-order rate constants were calculated as the average of three replicates.
FIG. 5A provides fluorescence real-times responses for oxime formation under varied conditions. The Time course of oxime formation between Compound (1) (CCVJ1) (5 μM) and AP-DNA (20 μM) under varied buffer conditions (50 mM) is shown. Ionic strength adjusted to 150 mM with NaCl
Next the reaction rates with CCVJ1 were evaluated. To measure oxime formation kinetics, 5 μM CCVJ1 was reacted with 20 μM AP DNA, and the resulting fluorescence time course was used to determine second-order rate constants by nonlinear regression analysis. Tris buffer was selected since it is commonly used in glycosylase assays with a salt concentration of 100 mM NaCl.
In addition to Tris buffer, oxime formation kinetics were also measured for CCVJ1 with AP DNA in a solution of a catalytic amine buffer previously shown to accelerate oxime formation. To this end, it was employed 50 mM N,N-dimethylethylenediamine (DEDA)•HCl buffered to a pH of 7.0 in place of the above Tris buffers. […] Such rapid rates of oxime formation at neutral pH are unprecedented for unactivated aldehydes.
In addition to the 5′ and 3′ neighboring bases, studies were done of the effect of the orphaned base Z paired opposite the abasic site on the UBER probe system (FIG. 10, panels C-D). Using the sequence where X=C and Y=G, the identity was varied of the base Z opposite the AP site. […] As a result, the smaller pyrimidine bases yielded a greater fluorescence light up response than the larger purine bases. It was also observed a strong effect by the opposing base on the rate of oxime formation (FIG. 10, panel D). […] This trend is in contrast to the neighboring base effect discussed above in which stronger stacking bases accelerated the rate of oxime formation.
General procedure for creating AP site DNA: A deoxyuridine containing oligonucleotide (typically 5-20 μM) was treated with 10 U/mL E. coli UDG (New England Biolabs) for 10 minutes at 37° C. in buffer to create AP site containing DNA (see below for MALDI-TOF confirmation). The hairpin was then reacted with probe from a DMSO stock solution (final DMSO concentration <5%).
Fluorescence time courses: Unless otherwise stated, fluorescence time courses were collected on a Fluoroskan Ascent Microplate Fluorometer (Thermo Fisher Scientific) with black, non-binding 384 well plates (Greiner) at a reaction volume of 60 μL with 50 mM Tris buffer pH 7 (ionic strength adjusted to 100 mM with NaCl) with a fluorescein filter set (Ex. 485, Em. 538).

SMILES: N#C/C(=C\c1cc2c3c(c1)CCCN3CCC2)C(=O)NCCON [CCVJ1]
- fluorescence with pseudo AP hairpin, higher than with undamaged DNA [1]: ~4 fold
- increase in fluorescence with pseudo AP hairpin over the free probe ([1]; 5 μM probe, 20 μM DNA): ~10 fold
- lag time tss of UBER probe coupled assay [2]: 5 to 50 min
- increase in fluorescence on reaction with single-stranded DNA [3]: 4 fold
- rate with single-stranded substrate, slower than double-stranded hairpin of identical sequence context ([3]; pH 7): roughly 5 fold
- second-order rate constant with single-stranded substrate ([3]; pH 7): 33 M⁻¹ s⁻¹
- light-up response with small-molecule ketones and aldehydes [4]: absence of any fluorescence response; also recorded: none of them generated a significant light-up response
- rate of oxime formation with optimal neighboring bases ([5]; AP hairpin X=C, Y=G, Z=C): 320 ± 13 M⁻¹ s⁻¹
- Apparent second-order rate constant of oxime formation k2 ([5]; DEDA pH 7 (50 mM N,N-dimethylethylenediamine HCl)): 440 M⁻¹ s⁻¹ and 440 ± 12 M⁻¹ s⁻¹
- Apparent second-order rate constant of oxime formation k2 ([5]; Tris pH 7, 5 μM CCVJ1, 20 μM AP DNA): 147 M⁻¹ s⁻¹ and 147 ± 8 M⁻¹ s⁻¹
- Apparent second-order rate constant of oxime formation k2 ([5]; Tris pH 7.5): 51 ± 2 M⁻¹ s⁻¹
- Apparent second-order rate constant of oxime formation k2 ([5]; Tris pH 8): 29 ± 1 M⁻¹ s⁻¹
- rate in DEDA buffer, times faster than in Tris ([5]; pH 7.0): ~3 times
- rate, times faster than typical oxime formation in neutral aqueous buffer ([5]; pH 7.0): 10^3-10^4 times
